Target: T1, D3R (Homo sapiens, UniProt P35462)
T1 construct: purchased Perkin Elmer ES-173M400UA
Assay: D3R competition binding ([3H]-spiperone)
Conditions: mean±SEM of two experiments in duplicate; read-out: D3R binding affinity Ki
Procedure: samples were filtered and washed four times with 250 µl wash buffer (50 mM Tris-HCl, 0.9% NaCl, pH=7.4) before measuring in a microplate beta scintillation counter (Microbeta Trilux, PerkinElmer, Madrid, Spain). Three independent exp eriments were carried out to calculate Ki values (n=3).
Human A1AR competition binding experiments were carried out in multiscreen GF/C 96 -well plates (Millipore, Madrid, Spain) pretreated with assay buffer ( 20 mM Hepes, 100 mM NaCl, 10 mM MgCl2, 2 U/ml adeno sine deamina se, pH=7.4). Each well contained 5 µg of membranes from a CHO-A1AR cell line, 1 nM [3H]-DPCPX (137 Ci/mmol, 1 mCi/Ml, Perkin Elmer NET974001MC), and the compound studied. Non-specific binding was determined in the presence of R-PIA 10 µM (Sigma P4532). The reaction mixture (200 µl/well) was incubated at 25°C for 60 min. The samples were then filtered and washed four times with 250 µl wash buffer (20 mM Hepes, 100 mM NaCl, 10 mM MgCl2, pH=7.4) before measuring in a microplate beta scintillati on counter (Microbeta Trilux, PerkinElmer, Madrid, Spain). Two independent experiments were carried out to calculate K i values (n=2).
D3R competition binding experiments were carried out in polypropylene 96 -well plate s. Each well contained 2 µg of membranes from a D3R cell line (Perkin Elmer, ES-173M400UA, protein concentration=1000 µg/ml), 1 nM [3H]-spiperone (68 Ci/mmol, 1 mCi/ml, Perkin Elmer NET1187001MC), and the compound studied. Non-specific binding was determined in the presence of 1 µ M haloperidol (Sigma H1512). The reaction mixture (250 µl/well) was incubated at 25 °C for 60 min, after which 200 µL was transferred to GF/C 96-well plates (Millipore, Madrid, Spain) pretreated with 0. […]
D4R competition binding experiments were carried out in polypropylene 96 -well plate s. […] Non-specific binding was determined in the presence of 25 µM haloperidol (Sigma H1512). […]
H1R competition binding experiments were carried out in polypropylene 96-well plates. […] Non-specific binding was determined in the presence of 10 µM triprolidine (T6764, Sigma Aldrich). […]

T1 sequence (P35462 whole entry): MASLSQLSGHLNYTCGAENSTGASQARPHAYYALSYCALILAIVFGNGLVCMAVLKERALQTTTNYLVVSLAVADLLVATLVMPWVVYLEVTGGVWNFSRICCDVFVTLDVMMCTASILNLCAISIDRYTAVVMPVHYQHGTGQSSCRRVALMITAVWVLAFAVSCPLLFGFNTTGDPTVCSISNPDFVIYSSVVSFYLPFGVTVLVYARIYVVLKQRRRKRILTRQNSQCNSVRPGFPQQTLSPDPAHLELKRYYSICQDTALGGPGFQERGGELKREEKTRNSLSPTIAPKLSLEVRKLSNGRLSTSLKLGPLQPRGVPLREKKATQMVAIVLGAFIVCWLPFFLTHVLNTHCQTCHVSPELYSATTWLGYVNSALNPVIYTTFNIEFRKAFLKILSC

Ki [nM]	SMILES
21 ± 6	CCN(CCCCC(=O)Nc1nc2c(Br)cccc2s1)C1Cc2ccccc2C1 [Compound 22]
56 ± 7	CCCN(CCCCC(=O)Nc1nc2c(OC)ccc(OC)c2s1)C1Cc2ccccc2C1 [Compound 30]
21 ± 2	CCCN(CCCCC(=O)Nc1nc2c(OC)cccc2s1)C1Cc2ccccc2C1 [Compound 26]

Source: paper PMC8456950, “Structure‐Guided Design of G‐Protein‐Coupled Receptor Polypharmacology” (Angewandte Chemie (International Ed. in English), 2021)
